Laboratory results taken from EP0942911B1, “BENZOPYRANOPYRROLE AND BENZOPYRANOPYRIDINE ALPHA-1 ADRENERGIC COMPOUNDS” (Abbott Laboratories, priority 1996, dated 1998).
Structures can show the parent of a compound that is named as a salt.

Columns and labels:
Assay in all cases: biochemical
[1] = biological target: T1, α-1A adrenoreceptor (rat submaxillary gland) (Rattus norvegicus, UniProt P43140); type: binding; details: [3H]-prazosin radioligand; rat submaxillary gland membranes; read-out: Radioligand Binding (Ki, nM) 1A (Rat)
T1 sequence (P43140 1-466): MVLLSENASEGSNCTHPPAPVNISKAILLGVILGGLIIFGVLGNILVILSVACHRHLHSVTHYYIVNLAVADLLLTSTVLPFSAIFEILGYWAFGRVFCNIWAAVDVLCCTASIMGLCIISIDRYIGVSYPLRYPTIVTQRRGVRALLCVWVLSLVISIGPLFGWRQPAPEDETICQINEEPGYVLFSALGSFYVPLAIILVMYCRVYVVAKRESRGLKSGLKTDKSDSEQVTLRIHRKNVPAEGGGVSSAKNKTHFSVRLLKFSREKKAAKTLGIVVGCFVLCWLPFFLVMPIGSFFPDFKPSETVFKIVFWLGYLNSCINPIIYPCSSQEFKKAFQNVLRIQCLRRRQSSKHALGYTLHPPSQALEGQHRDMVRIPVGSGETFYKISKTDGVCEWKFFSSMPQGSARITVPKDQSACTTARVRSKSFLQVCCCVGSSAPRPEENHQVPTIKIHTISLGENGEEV
Summary of the method: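 Membranes were prepared from rat submaxillary glands as the α-1A adrenoreceptor source. Competition binding followed Greengrass and Bremner, with bound radioligand measured by scintillation counting.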

α-1b adrenoreceptor = biological target: T2, α-1b adrenoreceptor (Mesocricetus auratus, UniProt P18841); type: binding, hamster; details: [3H]-prazosin radioligand; cloned receptor in LTK cell membranes; read-out: Radioligand Binding (Ki, nM) 1b (Hamster)
T2 sequence (P18841 1-515): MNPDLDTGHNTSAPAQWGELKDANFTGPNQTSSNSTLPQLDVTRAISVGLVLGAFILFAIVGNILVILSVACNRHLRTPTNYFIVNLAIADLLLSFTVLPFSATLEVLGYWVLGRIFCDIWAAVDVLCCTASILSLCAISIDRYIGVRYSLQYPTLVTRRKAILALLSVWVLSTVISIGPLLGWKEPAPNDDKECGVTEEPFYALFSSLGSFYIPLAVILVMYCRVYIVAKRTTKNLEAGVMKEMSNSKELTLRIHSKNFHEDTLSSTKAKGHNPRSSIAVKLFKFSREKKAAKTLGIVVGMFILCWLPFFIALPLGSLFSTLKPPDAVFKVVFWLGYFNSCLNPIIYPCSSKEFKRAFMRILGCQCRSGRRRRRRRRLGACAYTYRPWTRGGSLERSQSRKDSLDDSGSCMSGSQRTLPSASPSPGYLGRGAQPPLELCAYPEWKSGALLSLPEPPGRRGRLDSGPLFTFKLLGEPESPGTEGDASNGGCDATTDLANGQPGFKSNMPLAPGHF
Summary of the method: (§1)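 Membranes were prepared from high-density single-cell clones of transfected LTK cells, plus rat submaxillary gland for the α-1A site. Binding was measured by radioligand displacement with scintillation counting.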

α-1a adrenoreceptor = biological target: T3, α-1a adrenoreceptor (Bos taurus, UniProt P18130); type: binding, bovine; details: [3H]-prazosin radioligand; cloned receptor in LTK cell membranes; read-out: Radioligand Binding (Ki, nM) 1a (Bovine)
T3 sequence (P18130 1-466): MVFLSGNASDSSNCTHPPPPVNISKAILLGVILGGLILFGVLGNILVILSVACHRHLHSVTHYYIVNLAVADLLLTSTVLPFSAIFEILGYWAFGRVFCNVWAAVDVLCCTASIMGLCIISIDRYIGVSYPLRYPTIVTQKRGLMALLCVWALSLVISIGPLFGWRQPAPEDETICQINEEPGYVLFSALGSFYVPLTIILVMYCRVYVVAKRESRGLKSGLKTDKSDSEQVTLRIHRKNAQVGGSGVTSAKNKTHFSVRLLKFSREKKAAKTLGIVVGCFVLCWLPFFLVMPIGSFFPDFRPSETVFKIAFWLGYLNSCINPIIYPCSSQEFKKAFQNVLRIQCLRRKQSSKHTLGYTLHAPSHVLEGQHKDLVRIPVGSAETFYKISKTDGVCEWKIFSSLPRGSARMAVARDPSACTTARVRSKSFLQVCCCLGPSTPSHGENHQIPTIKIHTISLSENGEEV
Summary of the method: as §1

| Structure (SMILES) | Ki [1] | Ki (α-1b adrenoreceptor) | Ki (α-1a adrenoreceptor) |
| --- | --- | --- | --- |
| COc1cccc2c1[C@@H]1CN(CCCCn3c(=O)[nH]c4c(sc5ncc(-c6ccccc6)nc54)c3=O)C[C@H]1CO2 [Example 50, 3-[4-((3aS,9bR)-trans-9-Methoxy-1,2,3,3a,4,9b-hexahydro-[1]-benzopyrano[3,4-c]pyrrol-2-yl)butyl]-8-phenyl-pyrazino[2',3':4,5]thieno[3,2-d]pyrimidine-2,4(1H,3H)-dione hydrochloride] | 1.93 nM | 20.8 nM | 0.335 nM |
| COc1cccc2c1[C@@H]1CN(CCCCn3c(=O)[nH]c4c(sc5ccc(OC(C)C)nc54)c3=O)C[C@H]1CO2 [Example 51, 3-[4-((3aS,9bR)-trans-9-Methoxy-1,2,3,3a,4,9b-hexahydro-[1]-benzopyrano[3,4-c]pyrrol-2-yl)butyl]-8-isopropoxy-pyrido[2',3':4,5]thieno[3,2-d]pyrimidine-2,4(1H,3H)-dione hydrochloride] | 1.19 nM | 0.868 nM | 0.064 nM |
| COc1cccc2c1[C@@H]1CN(CCCCn3c(=O)[nH]c4c(sc5c(Cl)nccc54)c3=O)C[C@@H]1CO2 [Example 53, 3-[4-((3aR,9bR)-cis-9-Methoxy-1,2,3,3a,4,9b-hexahydro-[1]-benzopyrano[3,4-c]pyrrol-2-yl)butyl]-6-chloro-pyrido[4',3':4,5]thieno[3,2-d]pyrimidine-2,4(1H,3H)-dione] | 0.872 nM | 9.42 nM | 0.037 nM |
| COc1cccc2c1[C@@H]1CN(CCCCn3c(=O)[nH]c4c(sc5c(Cl)nccc54)c3=O)C[C@H]1CO2 [Example 54, 3-[4-((3aS,9bR)-trans-9-Methoxy-1,2,3,3a,4,9b-hexahydro-[1]-benzopyrano[3,4-c]pyrrol-2-yl)butyl]-6-chloro-pyrido[4',3':4,5]thieno[3,2-d]pyrimidine-2,4(1H,3H)-dione] | 0.077 nM | 1 nM | 0.187 nM |
| COc1cccc2c1[C@@H]1CCN(CCCCn3c(=O)[nH]c4c(sc5cccnc54)c3=O)C[C@H]1CO2 [Example 95, 3-[4-((4aS,10bR)-trans-10-Methoxy-1,3,4,4a,5,10b-hexahydro-2H-[1]-benzopyrano[3,4-c]pyrido-3-yl)butyl]-pyrido[2',3':4,5]thieno[3,2-d]pyrimidine-2.4(1H,3H)-dione dihydrochloride] | 8.83 nM | 21.6 nM | 1.8 nM |
| COc1cccc2c1[C@@H]1CCN(CCCCn3c(=O)[nH]c4c(sc5ncc(Cl)nc54)c3=O)C[C@H]1CO2 [Example 97, 3-[4-((4aS,10bR)-trans-10-Methoxy-1,3,4,4a,5,10b-hexahydro-2H-[1]-benzopyrano[3,4-c]pyrido-3-yl)butyl]-8-chloro-pyrazino[2',3':4,5]thieno[3,2-d]pyrimidine-2,4(1H,3H)-dione dihydrochloride] | 0.892 nM | 4.7 nM | 0.097 nM |
